From patent US12029217B2, “Safened compositions comprising pyridine carboxylate herbicides and isoxadifen” (Corteva Agriscience LLC, priority 2018, dated 2024)

How the values were obtained:
Type in all cases: in vivo
[1] = tested on: Erigeron canadensis (Canada horseweed); assay: Greenhouse postemergence visual injury, Canada horseweed (ERICA)
Text: (§1) Seeds of the desired test plant species were planted in a 90:10% v/v (volume/volume) mixture of PRO-MIX® BX (Premier Tech Horticulture, Quakertown, PA, USA) and PROFILE® GREENS GRADE™ (Profile Products LLC, Buffalo Grove, IL, USA) planting mixture, which typically has a pH of 5.2 to 6.2 and an organic matter content of at least 50 percent, in plastic pots with a surface area of 103.2 square centimeters (cm^2). When required to ensure good germination and healthy plants, a fungicide treatment and/or other chemical or physical treatment was applied. The plants were grown for 7-36 days (d) in a greenhouse with an approximate 14-hour (h) photo-period which was maintained at about 23° C. during the day and 22° C. during the night. Nutrients and water were added on a regular basis and supplemental lighting was provided with overhead metal halide 1000-Watt lamps as necessary. The plants were employed for testing when they reached the second or third true leaf stage.
(§2) Emulsifiable concentrates of each of each pyridine carboxylate herbicide (Compound A or Compound B) were prepared at 100 grams acid equivalent per liter (g ae/L). An aliquot of each emulsifiable concentrate was placed in a 25 mL glass vial and diluted with an aqueous mixture of 1.25% (v/v) ACTIROB® B esterified rapeseed oil (Bayer Crop Science, Research Triangle Park, NC, USA) or MSO® Concentrate with LECI-TECH® methylated soybean oil (Loveland Products, Loveland, CO, USA) to obtain concentrated stock solutions at the highest application rate for each herbicide, based upon a 12 milliliter (mL) application volume at a rate of 187 liters per hectare (L/ha). The concentrated stock solutions were further diluted with an aqueous mixture of 1.25% v/v ACTIROB® B or MSO® Concentrate with LECI-TECH® to obtain stock solutions at reduced application rates for each herbicide. Spray solutions of the herbicide combinations (Compound A or Compound B plus safener) were prepared by adding weighed amounts or aliquots of the safener to the stock solutions of Compound A or Compound B to form 12-mL spray solutions in two-way combinations.
(§3) The spray solutions were applied to the plant material with an overhead Mandel track sprayer equipped with 8002E nozzles calibrated to deliver 187 L/ha over an application area of 0.503 square meters (m^2) at a spray height of 18 inches (43 centimeters (cm)) above the average plant canopy. Control plants were sprayed in the same manner with the solvent blank. All herbicide (component a) application rates are given as “g ae/ha” and all safener (component b) application rates are given as “g ai/ha.”
(§4) The treated plants and control plants were placed in a greenhouse as described above and watered by sub-irrigation to prevent wash-off of the test compounds. After 20-22 d, the condition of the test plants as compared with that of the control plants was determined visually and scored on a scale of 0 to 100 percent where 0 corresponds to no injury and 100 corresponds to complete kill.

Avena fatua (wild oat) = assay: Greenhouse postemergence visual injury, wild oat (AVEFA); settings: Compound A 20 g/ha, Example 6
Text: as §1, §2
(§5) The spray solutions were applied to the plant material with an overhead Mandel track sprayer equipped with 8002E nozzles calibrated to deliver 187 L/ha over an application area of 0.503 square meters (m^2) at a spray height of 18 inches (43 centimeters (cm)) above the average plant canopy. […]
as §4

[2] = tested on: Sorghum vulgare (sorghum); assay: Greenhouse postemergence visual injury, sorghum (SORVU); settings: Compound A 40 g/ha, Example 5
Text: as §1, §2, §3, §4

[3] = tested on: Lolium multiflorum (Italian ryegrass); assay: Greenhouse postemergence visual injury, Italian ryegrass (LOLMU)
Text: as §1, §2, §3, §4

[4] = tested on: Salsola kali (Russian thistle); assay: Greenhouse postemergence visual injury, Russian thistle (SASKR); settings: Compound A 20 g/ha, Example 1
Text: as §1, §2, §5, §4

[5] = tested on: Cyperus esculentus (nutsedge); assay: Greenhouse postemergence visual injury, nutsedge (CYPES)
Text: as §1, §2, §3, §4

[6] = tested on: Echinochloa crus-galli (barnyardgrass); assay: Greenhouse postemergence visual injury, barnyardgrass (ECHCG)
Text: as §1, §2, §3, §4

[7] = tested on: Sorghum halepense (Johnson grass); assay: Greenhouse postemergence visual injury, Johnson grass (SORHA)
Text: as §1, §2, §3, §4

[8] = tested on: Alopecurus myosuroides (blackgrass); assay: Greenhouse postemergence visual injury, blackgrass (ALOMY); settings: Compound A 20 g/ha, Example 6
Text: as §1, §2, §5, §4

[9] = tested on: Abutilon theophrasti (velvetleaf); assay: Greenhouse postemergence visual injury, velvetleaf (ABUTH); settings: Compound A 20 g/ha, Example 6
Text: as §1, §2, §5, §4

[10] = tested on: Amaranthus palmeri (glyphosate-resistant Palmer amaranth); assay: Greenhouse postemergence visual injury, glyphosate-resistant Palmer amaranth (AMAPA-Gly); settings: Example 7
Text: as §1, §2, §5, §4

[11] = tested on: Hordeum vulgare (spring barley); assay: Greenhouse postemergence visual injury, spring barley (HORVS)
Text: as §1, §2, §3, §4

[12] = tested on: Cirsium arvense (Canada thistle); assay: Greenhouse postemergence visual injury, Canada thistle (CIRAR); settings: Compound A 20 g/ha, Example 6
Text: as §1, §2, §5, §4

[13] = tested on: Matricaria chamomilla (wild chamomile); assay: Greenhouse postemergence visual injury, wild chamomile (MATCH); settings: Compound A 20 g/ha, Example 1
Text: as §1, §2, §5, §4

[14] = tested on: Oryza sativa (common rice); assay: Greenhouse postemergence visual injury, rice (ORYSA); settings: Compound A 20 g/ha, Example 6
Text: as §1, §2, §5, §4

[15] = tested on: Kochia scoparia (herbicide-resistant kochia); assay: Greenhouse postemergence visual injury, herbicide-resistant kochia (KCHSC-R); settings: Compound A 20 g/ha, Example 6
Text: as §1, §2, §5, §4

[16] = tested on: Helianthus annuus (common sunflower); assay: Greenhouse postemergence visual injury, common sunflower (HELAN)
Text: as §1, §2, §3, §4

[17] = tested on: Chenopodium album L. (common lambsquarters); assay: Greenhouse postemergence visual injury, common lambsquarters (CHEAL); settings: Compound A 20 g/ha, Example 6
Text: as §1, §2, §5, §4

[18] = tested on: Viola tricolor (wild pansy); assay: Greenhouse postemergence visual injury, wild pansy (VIOTR); settings: Compound A 20 g/ha, Example 6
Text: as §1, §2, §5, §4

[19] = tested on: Polygonum convolvulus (wild buckwheat); assay: Greenhouse postemergence visual injury, wild buckwheat (POLCO); settings: Compound A 20 g/ha, Example 6
Text: as §1, §2, §5, §4

## N#CCOC(=O)c1nc(-c2ccc3cc[nH]c3c2F)c(F)c(N)c1Cl [Compound A, cyanomethyl 4-amino-3-chloro-5-fluoro-6-(7-fluoro-1H-indol-6-yl)pyridine-2-carboxylate]
[1]; Compound A 10 g/ha, Example 7
  % visual injury, Ob: 90%
[1]; Compound A 20 g/ha, Example 6
  % visual injury, Ob: 95%
[1]; Compound A 20 g/ha, Example 7
  % visual injury, Ob: 95%
Avena fatua (wild oat)
  % visual injury, Ob: 0%
[2]
  % visual injury, Ob: 50%
[3]; Compound A 10 g/ha, Example 7
  % visual injury, Ob: 18%
[3]; Compound A 20 g/ha, Example 6
  % visual injury, Ob: 5%
[3]; Compound A 20 g/ha, Example 7
  % visual injury, Ob: 60%
[4]
  % visual injury, Ob: 60%
[5]; Compound A 20 g/ha, Example 6
  % visual injury, Ob: 30%
[5]; Compound A 40 g/ha, Example 4
  % visual injury, Ob: 73%
[5]; Compound A 40 g/ha, Example 5
  % visual injury, Ob: 73%
[6]; Compound A 10 g/ha, Example 7
  % visual injury, Ob: 100%
[6]; Compound A 20 g/ha, Example 6
  % visual injury, Ob: 85%
[6]; Compound A 20 g/ha, Example 7
  % visual injury, Ob: 100%
[7]; Compound A 10 g/ha, Example 7
  % visual injury, Ob: 10%
[7]; Compound A 20 g/ha, Example 6
  % visual injury, Ob: 0%
[7]; Compound A 20 g/ha, Example 7
  % visual injury, Ob: 60%
[8]
  % visual injury, Ob: 0%
[9]
  % visual injury, Ob: 95%
[10]; Compound A 10 g/ha
  % visual injury, Ob: 100%
[10]; Compound A 20 g/ha
  % visual injury, Ob: 100%
[11]; Compound A 20 g/ha, Example 1
  % visual injury, Ob: 0%
[11]; Compound A 40 g/ha, Example 2
  % visual injury, Ob: 17%
[12]
  % visual injury, Ob: 95%
[13]
  % visual injury, Ob: 50%
[14]
  % visual injury, Ob: 10%
[15]
  % visual injury, Ob: 90%
[16]; Compound A 20 g/ha, Example 6
  % visual injury, Ob: 95%
[16]; Compound A 40 g/ha, Example 4
  % visual injury, Ob: 100%
[16]; Compound A 40 g/ha, Example 5
  % visual injury, Ob: 100%
[17]
  % visual injury, Ob: 88%
[18]
  % visual injury, Ob: 30%
[19]
  % visual injury, Ob: 100%
